Measurements published in patent US5954858A, “Bioreactor process for the continuous removal of organic compounds from a vapor phase process stream” (North Carolina State University, priority 1996, dated 1999).
Entries after “also recorded” stand apart in the source; their conditions may differ.

Experiments:
Strain mx-2 = test: Oxygen uptake rate, strain mx-2; format: cell-based, bacterial strain mx-2
Experimental: (§1) Experiments were conducted to examine the range of compounds degraded by enzymes present in the metabolic pathways of the strains established on meta- and para-xylene, as described in Example 7. […] The compounds listed Table 7 from benzoate through protocatechuate are enzymatic pathway intermediates in the oxidation of aromatic compounds.

Strain px-2 = test: Oxygen uptake rate, strain px-2; format: cell-based, bacterial strain px-2
Experimental: as §1

isolated soil consortia = test: Degradability / utilization as growth substrate by isolated soil consortia; format: cell-based; conditions: utilization as carbon source for growth and energy
From the text: (§2) Using a mixed consortium of organisms isolated in liquid culture from soil samples removed from a site saturated with gasoline for a number of years, the model compounds from each of the represented species in furniture exhaust gases were examined for degradability. Degradability actually refers to the ability of the microorganisms to utilize a compound as a carbon source for growth and energy. Different carbon sources are preferred by different organisms, so it was important to determine which model compounds were acceptable for the consortium which was isolated. Following completion of these initial studies, organism subcultures were generated for specific compounds.

mx-2 [1] = test: m-Xylene degradation rate of mx-2 strain; format: cell-based, mx-2 bacterial strain
From the text: as §2, with “Different carbon sources are preferred by different organisms, so it was important to determine which model compounds were acceptable for the consortium which was isolated.” left out
(§3) Maximum growth rates for the isolated consortia were determined in shake flask studies containing minimal media and supplemented with the appropriate compound. Concentrations of volatile organic compounds added to the flasks were 400 ppm (mole/mole) for MEK and MIBK, 150 ppm for m-xylene and p-xylene, and 2000 ppm for IBA and methanol.
(§4) The effects of carbon source composition were examined for the mx-2 bacterial strain. mx-2 is one of the strains of microorganism isolated from soil samples exposed to gasoline as described in Example 7.
(§5) In addition to examining the effects of ethanol and methanol, the impact of octanol on microorganism growth was determined. This investigation was necessary since some octanol (stripping fluid) will be delivered to the membrane bioreactor with the VHAPs/VOCs.

mx-2 [2] = test: Growth rate of mx-2 strain in shake flask; format: cell-based, mx-2 bacterial strain; conditions: for effect on the growth rate: mx-2 mixed carbon source study
From the text: as §2, with “Different carbon sources are preferred by different organisms, so it was important to determine which model compounds were acceptable for the consortium which was isolated.” left out
as §3, §4, §5

[3] = system: initial gasoline consortium; test: Enrichment of the initial gasoline consortium in individual flasks; format: cell-based, organisms isolated from gasoline-saturated soil samples
From the text: as §2

[4] = Partition coefficient of solute between octanol and water; format: physicochemical; conditions: 31 °C
[5] = Partition coefficient of solute between stripping fluid (octanol) and air; format: physicochemical
Experimental: Before beginning work with the LIQUI-CEL® membrane modules presented in Example 2, partition coefficient experiments were performed to investigate the equilibrium distribution of m-xylene, MEK, and MIBK between phases for stripping fluid/air. Octanol was chosen as the stripping fluid because data from previously conducted studies was readily available for comparison.
(§6) Partition coefficients are defined as a measure of the affinity a solute has for one phase over another at equilibrium. Therefore, they are an integral part of equations related to membrane contactor design and operation. Partition coefficients are expressed as a ratio of concentrations; the general form being (concentration in solvent)/(concentration in air).
For these studies, two forms of the partition coefficient were used. The first was the general form, which indicated the level of driving force for mass transfer (a value greater than 1 indicates sufficient driving force). The second form was defined as 1/(general form), or 1/Pgen, which was used in system operating equations.

[6] = Partition coefficient of m-xylene between natural oils and air; format: physicochemical; conditions: 31 °C
From the text: as §6
An additional set of experiments was run to evaluate stripping fluids other than octanol. This was due mainly to the relatively high cost of commercially available octanol. Partition coefficients were determined for m-xylene in several natural oils at 31° C. […] The purchase cost of these oils is roughly one-quarter that of octanol.

isolated consortia = test: Growth rate of cultures on o-xylene; format: cell-based, bacterial cultures isolated from soil samples
From the text: as §2
as §3, with “Pure bacterial cultures (single identifiable organisms) were established on meta- and para-xylene; the other cultures consisted of approximately three different bacterial strains each. Maximum” for “Maximum”

[7] = mx-2 on m-xylene, + 500 ppm octanol

Compound | Oxygen Uptake (Strain mx-2) [μmol/min-mg total protein] | Oxygen Uptake (Strain px-2) [μmol/min-mg total protein] | Degradability (isolated soil consortia) | cultures capable of degrading compound after enrichment [3] | other results
Cc1cccc(O)c1O [3-Methylcatechol] | 1.17 | 1.50 |  |  | 
Cc1ccc(O)c(O)c1 [4-Methylcatechol] | 0.92 | 4.35 |  |  | 
CC(C)=O [Acetone] |  |  | Yes |  | 
c1ccccc1 [Benzene] | 0.27 | 0.13 |  |  | 
O=C(O)c1ccccc1 [Benzoate] | 0.66 | 2.34 |  |  | 
Oc1ccccc1O [Catechol] | 1.23 | 5.19 |  |  | 
CCO [Ethanol] |  |  | Yes |  | reduction of the degradation rate of m-xylene (mx-2 [1]; mx-2, in presence of ethanol): about 30%; Degradation Rate (mx-2 [1]; mx-2 on m-xylene, + 0.2% EtOH): 2.34 * 10^-10 mg/(hr - cell); effect on the growth rate (mx-2 [2]): negligible; Specific Growth Rate (mx-2 [2]; mx-2 on m-xylene, + 0.2% EtOH): 0.40 h⁻¹; lowering of the maximum growth rate (mx-2 [2]; mx-2 on m-xylene, in presence of ethanol): 10%
C=O [Formaldehyde] |  |  | Yes |  | 
CC(C)CO [Isobutyl alcohol] |  |  | Yes |  | 
CCC(C)=O [MEK, methyl ethyl ketone] |  |  | Yes | cultures capable of degrading each compound were developed | 
CC(=O)CC(C)C [MIBK, methyl isobutyl ketone] |  |  | Yes | cultures capable of degrading each compound were developed | Partition Coef. [oct]/[water] [4]: 2.1; Partition Coef. [oct]/[air] ([5]; 6 °C): .infin.; Partition Coef. [oct]/[air] ([5]; 22 °C): 22,045; Partition Coef. [oct]/[air] ([5]; 31 °C): 8,721
CO [Methanol, methanol] |  |  | Yes | cultures capable of degrading each compound were developed | Degradation Rate (mx-2 [1]; mx-2 on m-xylene, + 0.2% MeOH): 3.57 * 10^-10 mg/(hr - cell); effect on the growth rate (mx-2 [2]): negligible; also recorded: no effect; Specific Growth Rate (mx-2 [2]; mx-2 on m-xylene, + 0.2% MeOH): 0.45 h⁻¹
C=Cc1ccccc1 [Styrene] | 0.55 | 0.47 | Yes |  | 
Cc1ccccc1 [Toluene] | 0.18 | 0.17 | Yes |  | 
CC(=O)OCC(C)C [isobutyl acetate] |  |  |  | cultures capable of degrading each compound were developed | 
Cc1cccc(C)c1 [m-xylene] | 0.82 | 0.31 | Yes | cultures capable of degrading each compound were developed | Partition Coef. [oct]/[water] [4]: 1,021; Partition Coef. [oct]/[air] ([5]; 6 °C): 9,865; Partition Coef. [oct]/[air] ([5]; 22 °C): 7,978; Partition Coef. [oct]/[air] ([5]; 31 °C): 7,703; form 2 partition coefficient, Pair/oct (1/general form) ([5]; air/stripping fluid separation unit): 0.00014; Degradation Rate (mx-2 [1]; mx-2 (grown on m-xylene, 150 ppm)): 3.60 * 10^-10 mg/(hr - cell); Partition Coef. [solvent]/[air] ([6]; corn oil): 8,283; Partition Coef. [solvent]/[air] ([6]; mineral oil): 7,284; Partition coefficients in natural oils versus octanol ([6]; natural oils evaluated): comparable to those for octanol; Partition Coef. [solvent]/[air] ([6]; sunflower seed oil): 8,244; Specific Growth Rate (mx-2 [2]; mx-2 (strain grown on m-xylene, 150 ppm)): 0.46 hr^1
CCCCO [n-Butyl alcohol] |  |  | Yes |  | 
Cc1ccccc1C [o-Xylene] | 0.31 |  | Yes |  | growth rate compared with other compounds (isolated consortia): relatively slow compared with that on other compounds
CCCCCCCCO [octanol] |  |  |  |  | Degradation Rate (mx-2 [1]; [7]): 3.60 * 10^-10 mg/(hr - cell); effect on the degradation rate (mx-2 [1]; test microorganism strain grown on m-xylene): no effect; Specific Growth Rate (mx-2 [2]; 500 ppm octanol (without "+")): 0.20 h⁻¹; effect on the growth rate (mx-2 [2]): no effect; Specific Growth Rate (mx-2 [2]; [7]): 0.46 h⁻¹
Cc1ccc(C)cc1 [p-Xylene] | 1.21 | 0.34 | Yes | cultures capable of degrading each compound were developed | 
